Assay [1] can be described thus: Inhibition of HCV NS5B polymerase […]. More on the design: species or system Hepacivirus hominis.
Another assay relates to Hepatitis C virus. Briefly: Antiviral activity against HCV replicon assay. Format: functional, organism-based, Hepacivirus hominis.

As to `CCc1ccc(/C=C2\SC(NS(=O)(=O)c3cccs3)=NC2=O)o1`, the IC50 in assay [1] was determined as 8 µM. The same compound registered an EC50 with Hepatitis C virus of 40 µM. With `CCc1ccc(/C=C2\SC(NS(=O)(=O)c3ccccc3N)=NC2=O)o1`, in assay [1], the half-maximal inhibitory concentration (IC50) was determined as 11 µM. In the assay on Hepatitis C virus, this compound returned an EC50 of 27 µM. `Cc1ccc(S(=O)(=O)NC2=NC(=O)C(Cc3ccco3)S2)cc1` (stereo not drawn) returned an IC50 in assay [1] of 74 µM. In addition, in the assay on Hepatitis C virus, a half-maximal effect (EC50) was put at 200 µM. As to `Cc1ccc(S(=O)(=O)NC2=NC(=O)C(Cc3ccc(Br)o3)S2)cc1` (stereo not drawn), the IC50 in assay [1] worked out at 40 µM. Besides, it took 64 µM to reach a half-maximal effect in the assay on Hepatitis C virus (EC50). `CCc1ccc(CC2SC(NS(=O)(=O)c3ccc(C)cc3)=NC2=O)o1` (stereo not drawn) had an IC50 in assay [1] of 7.3 µM. Further, in the assay on Hepatitis C virus, a half-maximal effect (EC50) was put at 33 µM.

In the case of `CCc1ccc(/C=C2\SC(NS(=O)(=O)c3ccccc3[N+](=O)[O-])=NC2=O)o1`, the half-maximal inhibitory concentration (IC50) in assay [1] is 18 µM. The compound also returned a 50% effective concentration (EC50) in the assay with Hepatitis C virus of 90 µM. Take `Cc1ccc(S(=O)(=O)NC2=NC(=O)/C(=C/C=C/c3ccco3)S2)cc1`: the half-maximal inhibitory concentration (IC50) in assay [1] was determined as 5 µM. In the assay with Hepatitis C virus, the concentration giving a half-maximal response (EC50) stood at 55 µM.

As to `Cc1ccc(S(=O)(=O)NC2=NC(=O)/C(=C/C=C/c3ccccn3)S2)cc1`, the 50% inhibitory concentration (IC50) in assay [1] turned out to be 0.6 µM. In addition, the 50% effective concentration (EC50) in the assay on Hepatitis C virus came to 35 µM. Compound `Cc1ccc(S(=O)(=O)NC2=NC(=O)/C(=C/c3ccc(-c4ccccc4)o3)S2)cc1` showed a half-maximal inhibitory concentration (IC50) in assay [1] of 5.5 µM. Moreover, a half-maximal effect in the assay on Hepatitis C virus (EC50) was put at 55 µM. Take `Cc1ccc(S(=O)(=O)NC2=NC(=O)/C(=C/c3cccs3)S2)cc1`: the IC50 in assay [1] was 12 µM. Also, it took 80 µM to reach a half-maximal effect in the assay with Hepatitis C virus (EC50). Take `Cc1ccc(S(=O)(=O)NC2=NC(=O)/C(=C/c3cc(C)c(Cl)s3)S2)cc1`: in assay [1], half-maximal inhibition (IC50) required 10 µM. In the assay with Hepatitis C virus, it took 200 µM to reach a half-maximal effect (EC50). On the same counts, the results for `Cc1ccc(S(=O)(=O)NC2=NC(=O)/C(=C/c3ccc(-c4nc(C(C)(C)C)cs4)cc3)S2)cc1` are 4.9 µM and 9 µM. As to `Cc1ccc(S(=O)(=O)NC2=NC(=O)/C(=C/c3ccc(-n4cccn4)cc3)S2)cc1`, the half-inhibitory concentration (IC50) in assay [1] was determined as 10 µM. In addition, in the assay with Hepatitis C virus, the EC50 was 70 µM. Turning to `Cc1ccc(S(=O)(=O)NC2=NC(=O)/C(=C/c3ccco3)S2)cc1`, the half-maximal inhibitory concentration (IC50) in assay [1] was determined as 11 µM. The compound further returned a 50% effective concentration (EC50) with Hepatitis C virus of 60 µM. On to `Cc1ccc(S(=O)(=O)NC2=NC(=O)/C(=C/c3ccc(Br)o3)S2)cc1`, for which 2.7 µM corresponded to half-maximal inhibition in assay [1] (IC50). The same compound yielded an EC50 in the assay with Hepatitis C virus of 50 µM. In assay [1], `CCc1ccc(/C=C2\SC(NS(=O)(=O)c3ccc(C)cc3)=NC2=O)o1` showed a half-maximal inhibitory concentration (IC50) of 1.4 µM. In the assay on Hepatitis C virus, this compound yielded an EC50 of 25 µM.

The compound `CCCCCCN(C1=NC(=O)/C(=C/c2ccc(CC)o2)S1)S(=O)(=O)c1ccc(C)cc1` came in with an IC50 in assay [1] above 100 µM. The compound further yielded an EC50 in the assay on Hepatitis C virus of 70 µM. In turn, `CCCCCCCN(C1=NC(=O)/C(=C/c2ccc(CC)o2)S1)S(=O)(=O)c1ccc(C)cc1` showed an IC50 in assay [1] above 100 µM. This compound gave an EC50 with Hepatitis C virus of 90 µM. As to `Cc1ccc(C(=O)NC2=NC(=O)/C(=C/c3ccc(C)o3)S2)cc1`, in assay [1], half-maximal inhibition (IC50) required 16 µM. Besides, the concentration giving a half-maximal response (EC50) in the assay on Hepatitis C virus is 60 µM. With `CCc1ccc(/C=C2\SC(NS(=O)(=O)c3ccccc3NC(C)=O)=NC2=O)o1`, the half-inhibitory concentration (IC50) in assay [1] was found to be 34 µM. For the same compound, in the assay with Hepatitis C virus, the midpoint of the response, the EC50, lay at 200 µM.

On to `Cc1ccc(S(=O)(=O)NC2=NC(=O)/C(=C/c3ccc(C)s3)S2)cc1`, for which the concentration for half-maximal inhibition (IC50) in assay [1] was 14 µM. In the assay on Hepatitis C virus, this compound yielded an EC50 of 70 µM.

In turn, `Cc1ccc(S(=O)(=O)NC2=NC(=O)/C(=C/c3ccc(C)o3)S2)cc1` displayed an IC50 in assay [1] of 11 µM. In assay [1], `CCc1ccc(/C=C2\SC(NS(=O)(=O)c3ccc([N+](=O)[O-])cc3)=NC2=O)o1` showed a 50% inhibitory concentration (IC50) of 3.2 µM. In the assay with Hepatitis C virus, this compound had an EC50 of 200 µM. The compound `Cc1ccc(C(=O)NC2=NC(=O)/C(=C/c3cccs3)S2)cc1` returned an IC50 in assay [1] of 33 µM. The concentration for a half-maximal effect (EC50) in the assay with Hepatitis C virus amounted to 100 µM.

In assay [1], `CCc1ccc(/C=C2\SC(NC(=O)c3ccc(C)cc3)=NC2=O)o1` had a 50% inhibitory concentration (IC50) of 13 µM. In the assay on Hepatitis C virus, this compound registered a concentration for a half-maximal effect (EC50) of 200 µM.

Regarding `Cc1ccc(S(=O)(=O)NC2=NC(=O)/C(=C/c3ccc([N+](=O)[O-])s3)S2)cc1`, 4.2 µM corresponded to half-maximal inhibition in assay [1] (IC50). The concentration for a half-maximal effect (EC50) in the assay with Hepatitis C virus is 7 µM.

Compound `Cc1ccc(C(=O)NC2=NC(=O)/C(=C/c3ccc(-c4nccs4)o3)S2)cc1` registered an IC50 in assay [1] of 44 µM. For the same compound, the EC50 in the assay with Hepatitis C virus was determined as 120 µM. On the same counts, the results for `Cc1ccc(C(=O)NC2=NC(=O)/C(=C/c3ccc(-c4ccc(-c5csnn5)cc4)o3)S2)cc1` are 11 µM and 70 µM. On the same counts, the results for `CCN(CC)c1ccc(/C=C2\SC(NS(=O)(=O)c3ccc(C)cc3)=NC2=O)cc1` are above 100 µM and 90 µM. On to `Cc1ccc(S(=O)(=O)NC2=NC(=O)/C(=C/c3ccc(-c4csnn4)cc3)S2)cc1`, for which, in assay [1], the half-inhibitory concentration (IC50) came to 1.4 µM. Further, the EC50 in the assay with Hepatitis C virus is 20 µM. On the same counts, the results for `Cc1ccc(S(=O)(=O)NC2=NC(=O)/C(=C/c3ccc(-n4cncn4)cc3)S2)cc1` are 32 µM and 100 µM. Consider `Cc1ccc(S(=O)(=O)NC2=NC(=O)/C(=C/c3ccc(-n4ccnc4)cc3)S2)cc1`, for which the half-inhibitory concentration (IC50) in assay [1] was above 100 µM. In addition, the midpoint of the response with Hepatitis C virus, the EC50, lay at 60 µM. Regarding `Cc1ccc(S(=O)(=O)NC2=NC(=O)/C(=C/c3ccc(N4CCCC4)cc3)S2)cc1`, the IC50 in assay [1] came out at 1.4 µM. In the assay on Hepatitis C virus, this compound came in with an EC50 of 25 µM.

With `CCc1ccc(/C=C2\SC(NS(=O)(=O)c3ccc(C(F)(F)F)cc3)=NC2=O)o1`, the IC50 in assay [1] stood at 3.2 µM. The compound further returned an EC50 in the assay on Hepatitis C virus of 30 µM. In the same order, the values of `Cc1ccc(S(=O)(=O)NC2=NC(=O)C(CCCc3ccccn3)S2)cc1` (stereo not drawn) are above 100 µM and 180 µM. In the case of `CCCCCN(C1=NC(=O)/C(=C/c2ccc(CC)o2)S1)S(=O)(=O)c1ccc(C)cc1`, in assay [1], the IC50 was above 100 µM. This compound had a concentration giving a half-maximal response (EC50) in the assay on Hepatitis C virus of 55 µM. On to `Cc1ccc(S(=O)(=O)NC2=NC(=O)/C(=C/c3ccc(I)o3)S2)cc1`, for which the IC50 in assay [1] worked out at 2.8 µM. Besides, the response in the assay with Hepatitis C virus was half-maximal at 38 µM (EC50).

Compound `Cc1ccc(S(=O)(=O)NC2=NC(=O)/C(=C/c3cc(C)c(C)o3)S2)cc1` came in with an IC50 in assay [1] of 3.2 µM. Further, the EC50 in the assay with Hepatitis C virus amounted to 200 µM. `Cc1ccc(S(=O)(=O)NC2=NC(=O)C(Cc3ccc(I)o3)S2)cc1` (stereo not drawn) had an IC50 in assay [1] of 15 µM. The same compound displayed an EC50 in the assay with Hepatitis C virus of 40 µM. As to `CCCCN(C1=NC(=O)/C(=C/c2ccc(CC)o2)S1)S(=O)(=O)c1ccc(C)cc1`, the concentration for half-maximal inhibition (IC50) in assay [1] is above 100 µM. In the assay on Hepatitis C virus, this compound gave an EC50 of 33 µM. `Cc1ccc(S(=O)(=O)NC2=NC(=O)/C(=C/c3ccc(N4CCOCC4)cc3)S2)cc1` showed a half-inhibitory concentration (IC50) in assay [1] of 12 µM. In the assay with Hepatitis C virus, this compound had an EC50 of 180 µM. In the same order, the values of `Cc1ccc(C(=O)NC2=NC(=O)/C(=C/c3ccc(-c4[nH]cnc4C)o3)S2)cc1` are above 100 µM and 220 µM.
